How the values were obtained:
[1] = Cmax in po dosed CD-1 mouse by LC/MS/MS analysis; format: ADME, organism-based; parameters: route po; settings: in vivo
[2] = Tmax in po dosed CD-1 mouse by LC/MS/MS analysis; format: ADME, organism-based; settings: in vivo
MDA-MB-231 [3] = assay: Antiproliferative activity against human MDA-MB-231 cells measured after 6 days by MTT assay; format: functional; settings: MDA-MB-231, 144 h, time 6 day
[4] = Half life in po dosed CD-1 mouse by LC/MS/MS analysis; format: ADME, organism-based; settings: in vivo
MDA-MB-468 [5] = assay: Antiproliferative activity against human MDA-MB-468 cells measured after 6 days by MTT assay; format: functional; settings: MDA-MB-468, 144 h, time 6 day
[6] = AUC in po dosed CD-1 mouse by LC/MS/MS analysis; format: ADME, organism-based; parameters: route po; settings: in vivo
[7] = MRT in po dosed CD-1 mouse by LC/MS/MS analysis; format: ADME, organism-based; settings: in vivo
MDA-MB-231 [8] = assay: Downregulation of PeIF4E in human MDA-MB-231 cells measured after 24 hrs by SDS PAGE based Western blotting analysis; format: functional, cell-based
MDA-MB-468 [9] = assay: Induction of apoptosis in human MDA-MB-468 cells assessed as downregulation of Bcl-2 measured after 24 hrs by SDS PAGE based Western blotting analysis; format: functional, cell-based
MDA-MB-231 [10] = assay: Downregulation of Mnk1 in human MDA-MB-231 cells measured after 24 hrs by SDS PAGE based Western blotting analysis; format: functional, cell-based
MDA-MB-468 [11] = assay: Induction of apoptosis in human MDA-MB-468 cells assessed as upregulation of Bax measured after 24 hrs by SDS PAGE based Western blotting analysis; format: functional, cell-based
MDA-MB-468 [12] = assay: Induction of apoptosis in human MDA-MB-468 cells assessed as downregulation of […] measured after 24 hrs by SDS PAGE based Western blotting analysis; format: functional, cell-based
MDA-MB-231 [13] = assay: Induction of apoptosis in human MDA-MB-231 cells assessed as downregulation of […] measured after 24 hrs by SDS PAGE based Western blotting analysis; format: functional, cell-based
MDA-MB-231 [14] = assay: Induction of apoptosis in human MDA-MB-231 cells assessed as upregulation of Bax measured after 24 hrs by SDS PAGE based Western blotting analysis; format: functional, cell-based
MDA-MB-231 [15] = assay: Induction of apoptosis in human MDA-MB-231 cells assessed as downregulation of Bcl-2 measured after 24 hrs by SDS PAGE based Western blotting analysis; format: functional, cell-based
MDA-MB-231 [16] = assay: Antiproliferative activity against human MDA-MB-231 cells measured after 24 hrs by MTT assay; format: functional
[17] = dose 5-20 µM, DDE = dose-dependent effect
[18] = dose 5-20 µM, tested as the 2H-labelled form, DDE = dose-dependent effect
[19] = dose 5-20 µM, DDE = dose-dependent effect, tested as the 2H-labelled form

[2H]c1nc([2H])n(C2([2H])CCC(C)(C)C(/C=C/C(C)=C/C=C/C(C)=C/C(=O)Nc3c([2H])c([2H])c(F)c([2H])c3[2H])=C2C)c1[2H] (racemic)
Cmax [1]: 1620 ng/mL
Tmax [2]: 2.67 h
GI50 (MDA-MB-231 [3]): 710 nM
half-life [4]: 10.3 h
GI50 (MDA-MB-468 [5]): 290 nM
AUC [6]: 22600 ng·h/mL
MRT [7]: 8.92 h

[2H]c1nc([2H])n(C2([2H])CCC(C)(C)C(/C=C/C(C)=C/C=C/C(C)=C/C(=O)Nc3ccc(F)cc3)=C2C)c1[2H] (racemic)
Cmax [1]: 501 ng/mL
Tmax [2]: 0.67 h
GI50 (MDA-MB-231 [3]): 830 nM
half-life [4]: 4.27 h
GI50 (MDA-MB-468 [5]): 270 nM
AUC [6]: 2700 ng·h/mL
MRT [7]: 5.49 h

[2H]c1nc([2H])n(C2CCC(C)(C)C(/C=C/C(C)=C/C=C/C(C)=C/C(=O)Nc3c([2H])c([2H])c(F)c([2H])c3[2H])=C2C)c1[2H] (racemic)
Cmax [1]: 455 ng/mL
Tmax [2]: 0.83 h
GI50 (MDA-MB-231 [3]): 620 nM
half-life [4]: 4.34 h
GI50 (MDA-MB-468 [5]): 250 nM
AUC [6]: 2060 ng·h/mL
MRT [7]: 2.89 h

[2H]c1c([2H])c(NC(=O)/C=C(C)/C=C/C=C(C)/C=C/C2=C(C)C(n3ccnc3)CCC2(C)C)c([2H])c([2H])c1F (racemic)
Cmax [1]: 273 ng/mL
Tmax [2]: 0.83 h
GI50 (MDA-MB-231 [3]): 770 nM
half-life [4]: 4.9 h
GI50 (MDA-MB-468 [5]): 270 nM
AUC [6]: 1730 ng·h/mL
MRT [7]: 4.63 h

[2H]c1nc([2H])n(C2CCC(C)(C)C(/C=C/C(C)=C/C=C/C(C)=C/C(=O)Nc3ccc(F)cc3)=C2C)c1[2H] (racemic)
Cmax [1]: 151 ng/mL
Tmax [2]: 1.33 h
GI50 (MDA-MB-231 [3]): 710 nM
half-life [4]: 8.39 h
GI50 (MDA-MB-468 [5]): 280 nM
AUC [6]: 1740 ng·h/mL
MRT [7]: 3.57 h

[2H]C1(n2ccnc2)CCC(C)(C)C(/C=C/C(C)=C/C=C/C(C)=C/C(=O)Nc2ccc(F)cc2)=C1C (racemic)
Cmax [1]: 1030 ng/mL
Tmax [2]: 2.5 h
GI50 (MDA-MB-231 [3]): 860 nM
half-life [4]: 12.1 h
GI50 (MDA-MB-468 [5]): 190 nM
AUC [6]: 17600 ng·h/mL
MRT [7]: 9.06 h

[2H]c1c([2H])c(NC(=O)/C=C(C)/C=C/C=C(C)/C=C/C2=C(C)C([2H])(n3ccnc3)CCC2(C)C)c([2H])c([2H])c1F (racemic)
Cmax [1]: 1360 ng/mL
Tmax [2]: 0.75 h
GI50 (MDA-MB-231 [3]): 620 nM
half-life [4]: 10.2 h
GI50 (MDA-MB-468 [5]): 270 nM
AUC [6]: 15500 ng·h/mL
MRT [7]: 8.48 h

CC1=C(/C=C/C(C)=C/C=C/C(C)=C/C(=O)Nc2ccc(F)cc2)C(C)(C)CCC1n1ccnc1 (racemic; form 1) [listing 1 of 2 here]
Cmax [1]: 4650 ng/mL
Tmax [2]: 0.83 h
GI50 (MDA-MB-231 [3]): 830 nM
half-life [4]: 3.61 h
GI50 (MDA-MB-468 [5]): 400 nM
AUC [6]: 22800 ng·h/mL
MRT [7]: 3.02 h

CC1=C(/C=C/C(C)=C/C=C/C(C)=C/C(=O)Nc2ccc(F)cc2)C(C)(C)CCC1n1ccnc1 (racemic; form 1) [listing 2 of 2 here]
Activity (MDA-MB-231 [8]; [17]): Dde
Activity (MDA-MB-468 [9]; [17]): Dde
Activity (MDA-MB-231 [10]; [17]): Dde
Activity (MDA-MB-468 [11]; [17]): Dde
Activity (MDA-MB-468 [12]; [17]): Dde
Activity (MDA-MB-231 [13]; [17]): Dde
Activity (MDA-MB-231 [14]; [17]): Dde
Activity (MDA-MB-231 [15]; [17]): Dde

CC1=C(/C=C/C(C)=C/C=C/C(C)=C/C(=O)Nc2ccc(F)cc2)C(C)(C)CCC1n1ccnc1 (racemic; form 2)
Activity (MDA-MB-231 [8]; [18]): Dde
Activity (MDA-MB-468 [9]; [18]): Dde
Activity (MDA-MB-231 [10]; [18]): Dde
Activity (MDA-MB-468 [11]; [18]): Dde
Activity (MDA-MB-468 [12]; [19]): Dde
Activity (MDA-MB-231 [13]; [18]): Dde
Activity (MDA-MB-231 [14]; [18]): Dde
Activity (MDA-MB-231 [15]; [19]): Dde

CC1=C(/C=C/C(C)=C/C=C/C(C)=C/C(=O)Nc2ccc(F)cc2)C(C)(C)CCC1n1ccnc1 (racemic; form 3)
Activity (MDA-MB-231 [8]; [19]): Dde
Activity (MDA-MB-468 [9]; [18]): Dde
Activity (MDA-MB-231 [10]; [19]): Dde
Activity (MDA-MB-468 [11]; [18]): Dde
Activity (MDA-MB-468 [12]; [18]): Dde
Activity (MDA-MB-231 [13]; [19]): Dde
Activity (MDA-MB-231 [14]; [19]): Dde
Activity (MDA-MB-231 [15]; [19]): Dde

CC1=C(/C=C/C(C)=C/C=C/C(C)=C/C(=O)Nc2ccc(F)cc2)C(C)(C)CCC1n1ccnc1 (racemic; form 4)
Activity (MDA-MB-231 [8]; [19]): Dde
Activity (MDA-MB-468 [9]; [18]): Dde
Activity (MDA-MB-231 [10]; [19]): Dde
Activity (MDA-MB-468 [11]; [19]): Dde
Activity (MDA-MB-468 [12]; [18]): Dde
Activity (MDA-MB-231 [13]; [19]): Dde
Activity (MDA-MB-231 [14]; [18]): Dde
Activity (MDA-MB-231 [15]; [19]): Dde

CC1=C(/C=C/C(C)=C/C=C/C(C)=C/C(=O)Nc2ccc(F)cc2)C(C)(C)CCC1n1ccnc1 (racemic; form 5)
Activity (MDA-MB-231 [8]; [18]): Dde
Activity (MDA-MB-468 [9]; [19]): Dde
Activity (MDA-MB-231 [10]; [18]): Dde
Activity (MDA-MB-468 [11]; [19]): Dde
Activity (MDA-MB-468 [12]; [18]): Dde
Activity (MDA-MB-231 [13]; [18]): Dde
Activity (MDA-MB-231 [14]; [18]): Dde
Activity (MDA-MB-231 [15]; [18]): Dde

CC1=C(/C=C/C(C)=C/C=C/C(C)=C/C(=O)Nc2ccc(F)cc2)C(C)(C)CCC1n1ccnc1 (racemic; form 6)
Activity (MDA-MB-231 [8]; [18]): Dde
Activity (MDA-MB-468 [9]; [18]): Dde
Activity (MDA-MB-231 [10]; [18]): Dde
Activity (MDA-MB-468 [11]; [18]): Dde
Activity (MDA-MB-468 [12]; [19]): Dde
Activity (MDA-MB-231 [13]; [18]): Dde
Activity (MDA-MB-231 [14]; [19]): Dde
Activity (MDA-MB-231 [15]; [18]): Dde

CC1=C(/C=C/C(C)=C/C=C/C(C)=C/C(=O)Nc2ccc(F)cc2)C(C)(C)CCC1n1ccnc1 (racemic; form 7)
Activity (MDA-MB-231 [8]; [18]): Dde
Activity (MDA-MB-468 [9]; [19]): Dde
Activity (MDA-MB-231 [10]; [18]): Dde
Activity (MDA-MB-468 [11]; [19]): Dde
Activity (MDA-MB-468 [12]; [19]): Dde
Activity (MDA-MB-231 [13]; [18]): Dde
Activity (MDA-MB-231 [14]; [18]): Dde
Activity (MDA-MB-231 [15]; [19]): Dde

CC1=C(/C=C/C(C)=C/C=C/C(C)=C/C(=O)Nc2ccc(F)cc2)C(C)(C)CCC1n1ccnc1 (racemic; form 8)
Activity (MDA-MB-231 [8]; [18]): Dde
Activity (MDA-MB-468 [9]; [18]): Dde
Activity (MDA-MB-231 [10]; [19]): Dde
Activity (MDA-MB-468 [11]; [19]): Dde
Activity (MDA-MB-468 [12]; [19]): Dde
Activity (MDA-MB-231 [13]; [19]): Dde
Activity (MDA-MB-231 [14]; [18]): Dde
Activity (MDA-MB-231 [15]; [19]): Dde

CC(=O)O[C@H]1C(=O)[C@@]2(C)[C@H]([C@H](OC(=O)c3ccccc3)[C@]3(O)C[C@H](OC(=O)[C@H](O)[C@@H](NC(=O)c4ccccc4)c4ccccc4)C(C)=C1C3(C)C)[C@]1(OC(C)=O)CO[C@@H]1C[C@@H]2O [PACLITAXEL]
GI50 (MDA-MB-231 [3]): 220 nM
GI50 (MDA-MB-468 [5]): 100 nM
GI50 (MDA-MB-231 [16]): 300 nM

Reference: ChEMBL document CHEMBL5137026, “Novel deuterated Mnk1/2 protein degrader VNLG-152R analogs: Synthesis, In vitro Anti-TNBC activities and pharmacokinetics in mice” (Eur J Med Chem, 2022)
